What was measured:
Test in all cases: Biological Example 3 glasshouse assay for herbicidal activity, using various adjuvant systems
Assay type in all cases: in vivo
Conditions in all cases: post-emergence, 8 g/ha, 14 or 15 DAA; adjuvant 0.5% v/v + 1.0% AMS + 12.5% IPA: TEHP (A3-A7), Adigor (A8, P1, P2, P4), Hexamoll DINCH (A1)
[1] = tested on: Brachiaria decumbens (BRADC)
Experimental: (§1) • Materials and Methods • Herbicide Application: Post-emergence foliar spray application, 200 L/ha, usually one or two replicates for the weeds (depending on application rate), and two replicates for soybean. • Climate: Standard warm conditions (tropical), in glasshouse. Specifically, the glasshouse bay conditions are 24° C./18° C. day/night; 16/8 hours light/dark; 65% humidity. • Plants: The herbicidal application takes place at the following growth stages for plants which include inter alia one or more of the following plants (usually the herbicidal application takes place on at least the following plants: DIGSA, ELEIN, SETFA, ZEAMX, GLXMA Nikko, and GLXMA TMG133, and often also either BRADC or BRAPP): • Brachiaria decumbens (BRADC)—growth stage (GS) 12 or 13 (or GS 12)—or, if BRADC is not used, then usually Brachiaria platyphylla (BRAPP)—growth stage 12 or 13 • Digitaria sanguinalis (DIGSA)—growth stage 12 or 13 • Eleusine indica (ELEIN)—growth stage 12 or 13 • Setaria faberi (SETFA)—growth stage 12 or 13 • Echinochloa crus-galli (ECHCG)—growth stage 12 or 13 • Sorghum halepense (annual) (SORHA)—growth stage 12 or 13 • Panicum dichotomiflorum (PANDI)—growth stage 12 or 13 • Zea mays (ZEAMX, maize/corn, e.g. can occur as volunteer corn) cultivar “Garland”—growth stage 12 or 13 • Glycine max (GLXMA, soybean) cultivar “Nikko”—growth stage: 1st trifoliate • Glycine max (GLXMA, soybean) cultivar “TMG133”—which is Roundup Ready™ glyphosate-tolerant soybean cultivar TMG133 (typically available from Monsanto in Brazil)—growth stage: 1st trifoliate. • Herbicidal Compositions Tested:
(§2) Each test compound is applied with one of the following adjuvant systems (all percentages are final concentrations in the aqueous spray mixture): • Adjuvant system 1: 0.5% v/v Adigor™*, 1.0% v/v AMS (ammonium sulphate) and 12.5% v/v IPA (isopropyl alcohol). • Adjuvant system 2: 0.5% v/v Hexamoll™ DINCH**, 1.0% v/v AMS (ammonium sulphate) and 12.5% v/v IPA (isopropyl alcohol). • Adjuvant system 3: 0.5% v/v tris-(2-ethylhexyl)phosphate (“TEHP”), 1.0% v/v AMS (ammonium sulphate) and 12.5% v/v IPA (isopropyl alcohol). ***Adigor™ (currently available in many countries from Syngenta) is an emulsifiable concentrate which consists of: • (i) ethoxylated alcohols, which typically includes ethoxylated higher alcohols (e.g. ethoxylates of alcohols wherein the alcohols are within the range of C12-C22); and • (ii) a mixture of heavy aromatic hydrocarbons, which typically includes (e.g. includes 50% or more by weight of the heavy aromatic hydrocarbons of) a mixture of naphthalenes each of which is substituted by one or more alkyls wherein the alkyl(s) in total have 1-4 carbon atoms per naphthalene molecule (e.g. Solvesso 200 ND™); and • (iii) about 47% w/w and/or about 45% w/v (with respect to the emulsifiable concentrate) of methylated rapeseed oil (rapeseed oil methyl ester) (e.g. Agnique ME 18 RD-F™), as an adjuvant. **Hexamoll™ DINCH™ is 1,2-cyclohexane dicarboxylic acid di-isononyl ester
(§3) Seeds of the weed (including volunteer) plants, typically including inter alia Digitaria sanguinalis (DIGSA), Eleusine indica (ELEIN), Setaria faberi (SETFA), Zea mays (ZEAMX, corn), and sometimes also [either Brachiaria decumbens (BRADC) or Brachiaria platyphylla (BRAPP)], are sown in seed trays (troughs) containing clay loam soil (pH 7.0, 2.2% organic matter, “Trough Mix A”); and soybean seed is sown in pots containing the same soil with 3 soybean seedlings per pot. The plants are sprayed with the test herbicide when they reach the growth stages mentioned above.
(§4) The test herbicidal solutions are prepared by mixing the appropriate aliquots of the test substance(s) and one of the adjuvant systems indicated above*** in deionised water to give the desired treatment concentration.
(§5) The herbicidal application is made as a foliar spray, using a tracksprayer. Following the herbicidal application, the plants are watered twice per day for the duration of the test. […]

[2] = tested on: Digitaria sanguinalis (DIGSA)
Experimental: as §1, §2, §3, §4, §5

Eleusine indica (ELEIN) = tested on: Eleusine indica (ELEIN)
Experimental: as §1, §2, §3, §4, §5

Setaria faberi (SETFA) = tested on: Setaria faberi (SETFA)
Experimental: as §1, §2, §3, §4, §5

| Structure (SMILES) | percentage control of (percentage phytotoxicity on) Brachiaria decumbens (BRADC) [1] [%] | percentage control of (percentage phytotoxicity on) Digitaria sanguinalis (DIGSA) [2] [%] | percentage control of (percentage phytotoxicity on) Eleusine indica (ELEIN) (Eleusine indica (ELEIN)) [%] | percentage control of (percentage phytotoxicity on) Setaria faberi (SETFA) (Setaria faberi (SETFA)) [%] |
| --- | --- | --- | --- | --- |
| COc1cc(C#CCl)cc(F)c1C1C(=O)C2CCC(C2)C1=O (centres unmarked) [Compound A8, 3-[4-(2-chloroethynyl)-2-fluoro-6-methoxy-phenyl]bicyclo[3.2.1]octane-2,4-dione] | 15 | 30 | 5 | 10 |
| CC#Cc1cc(F)c(C2=C(OC(=O)C(C)(C)C)C3CCC(C3)C2=O)c(OC)c1 (centres unmarked) [Compound P1] |  | 70 |  |  |
